From patent publication US7402424B2, “Spectroscopic pH measurement at high-temperature and/or high-pressure” (Schlumberger Technology Corporation, priority 2006, dated 2008)
Where two headings read alike, the source gives them in different places.

Key:
[1] = pKa of reagents (reagent properties used in the model of FIG. 2a); format: physicochemical; conditions: reagent property used in the model of FIG. 2a
[2] = Molar absorptivity ε of acid and base forms of reagents at 570 nm and 445 nm; format: physicochemical; conditions: for ε at 445 nm (λ1), Acid / ε at 570 nm (λ2), Acid: acid form; for ε at 445 nm (λ1), Acid / ε at 445 nm (λ1), Base / ε at 570 nm (λ2), Base: in M-1·cm-1 (unit assumed); for ε at 445 nm (λ1), Base / ε at 570 nm (λ2), Base: base form (sodium salt of the reagent)

SMILES	pKa [1]	ε at 445 nm (λ1), Acid [2]	ε at 570 nm (λ2), Acid [2] [M⁻¹ cm⁻¹]	ε at 445 nm (λ1), Base [2]	ε at 570 nm (λ2), Base [2]	pKa ([1]; read-out: pKa)
O=S1(=O)OC(c2cc(Br)c(O)c(Br)c2)(c2cc(Br)c(O)c(Br)c2)c2ccccc21 [Bromophenol Blue]	4.11	21711	378	1981	46859	
O=S1(=O)OC(c2ccc(O)c(Cl)c2)(c2ccc(O)c(Cl)c2)c2ccccc21 [Chlorophenol Red]	6.11	18136	58	1985	54247	
O=S1(=O)OC(c2ccc(O)cc2)(c2ccc(O)cc2)c2ccccc21 [Phenol Red]						7.79
